# Measurements published in patent US4791215A, “Derivatives of glutamic acid and aspartic acid” (priority 1984, dated 1988).
# System: activity of analgesic drugs
# Test: Hot-plate test, potentiation of analgesic drugs (Experiment 2)
# Format: in vivo, rats
# Experimental: Experiment No. 2: Hot-plate test
# The method is that described by Eddy et al. (J. Pharmac. Exp. Ther. 107, 385 (1953)).
# Groups of five male rats having a weight of about 150 g, and which have not fasted, are used.
# The animals are placed on a metal plate on the bottom of a transparent cylinder, which is heated to 55°±1° C. by an azeotropic boiling mixture (acetone-ethyl formate 1:1).
# The reaction time is defined as the interval which passes between the moment at which the animal is placed on the hot-plate and the moment at which it either licks its feet or tries to jump out of the cylinder. The control reaction time is measured 10 and 5 minutes before administration of the drugs and 10, 20, 30, 45, 60 and 90 minutes afterwards. The animals are left on the plate for a maximum period of 30 seconds.
# The response to the administration of the product is considered positive if at least a doubling of the normal reaction time is seen. The results obtained are given in Tables 2a and 2b which record the groups treated, the doses administered and the stay times on the plate expressed as the number of positive responses over the number treated.
compound,measurement,setting,value
CCCN(CCC)C(=O)C(CCC(=O)O)NC(=O)c1cccc(C#N)c1 (centres unmarked) [Compound C-20],TOTAL positives,ASA 100 + compound 5 mg/kg i.p.,12 x/30
same,positive responses over number treated,"ASA 100 + compound 5 mg/kg i.p., 10'",2/5
same,positive responses over number treated,"ASA 100 + compound 5 mg/kg i.p., 20'",2/5
same,positive responses over number treated,"ASA 100 + compound 5 mg/kg i.p., 30'",2/5
same,positive responses over number treated,"ASA 100 + compound 5 mg/kg i.p., 45'",3/5
same,positive responses over number treated,"ASA 100 + compound 5 mg/kg i.p., 60'",3/5
same,positive responses over number treated,"ASA 100 + compound 5 mg/kg i.p., 90'",0/5
same,TOTAL positives,ASA 100 + compound 20 mg/kg i.p.,17 x/30
same,positive responses over number treated,"ASA 100 + compound 20 mg/kg i.p., 10'",1/5
same,positive responses over number treated,"ASA 100 + compound 20 mg/kg i.p., 20'",3/5
same,positive responses over number treated,"ASA 100 + compound 20 mg/kg i.p., 30'",3/5
same,positive responses over number treated,"ASA 100 + compound 20 mg/kg i.p., 45'",3/5
same,positive responses over number treated,"ASA 100 + compound 20 mg/kg i.p., 60'",4/5
same,positive responses over number treated,"ASA 100 + compound 20 mg/kg i.p., 90'",3/5
same,TOTAL positives,ASA 100 + compound 50 mg/kg i.p.,22 x/30
same,positive responses over number treated,"ASA 100 + compound 50 mg/kg i.p., 10'",3/5
same,positive responses over number treated,"ASA 100 + compound 50 mg/kg i.p., 20'",2/5
same,positive responses over number treated,"ASA 100 + compound 50 mg/kg i.p., 30'",5/5
same,positive responses over number treated,"ASA 100 + compound 50 mg/kg i.p., 45'",5/5
same,positive responses over number treated,"ASA 100 + compound 50 mg/kg i.p., 60'",4/5
same,positive responses over number treated,"ASA 100 + compound 50 mg/kg i.p., 90'",3/5
same,effect on analgesic activity of propoxyphene,compound 3 mg/kg i.p.,can double the analgesic activity of propoxyphene
same,TOTAL positives,propoxyphene 15 + compound 1 mg/kg i.p.,16 x/30
same,positive responses over number treated,"propoxyphene 15 + compound 1 mg/kg i.p., 10'",2/5
same,positive responses over number treated,"propoxyphene 15 + compound 1 mg/kg i.p., 20'",2/5
same,positive responses over number treated,"propoxyphene 15 + compound 1 mg/kg i.p., 30'",3/5
same,positive responses over number treated,"propoxyphene 15 + compound 1 mg/kg i.p., 45'",3/5
same,positive responses over number treated,"propoxyphene 15 + compound 1 mg/kg i.p., 60'",3/5
same,positive responses over number treated,"propoxyphene 15 + compound 1 mg/kg i.p., 90'",3/5
same,TOTAL positives,propoxyphene 15 + compound 3 mg/kg i.p.,25 x/30
same,positive responses over number treated,"propoxyphene 15 + compound 3 mg/kg i.p., 10'",3/5
same,positive responses over number treated,"propoxyphene 15 + compound 3 mg/kg i.p., 20'",5/5
same,positive responses over number treated,"propoxyphene 15 + compound 3 mg/kg i.p., 30'",4/5
same,positive responses over number treated,"propoxyphene 15 + compound 3 mg/kg i.p., 45'",5/5
same,positive responses over number treated,"propoxyphene 15 + compound 3 mg/kg i.p., 60'",4/5
same,positive responses over number treated,"propoxyphene 15 + compound 3 mg/kg i.p., 90'",4/5
same,TOTAL positives,propoxyphene 15 + compound 10 mg/kg i.p.,27 x/30
same,positive responses over number treated,"propoxyphene 15 + compound 10 mg/kg i.p., 10'",4/5
same,positive responses over number treated,"propoxyphene 15 + compound 10 mg/kg i.p., 20'",5/5
same,positive responses over number treated,"propoxyphene 15 + compound 10 mg/kg i.p., 30'",5/5
same,positive responses over number treated,"propoxyphene 15 + compound 10 mg/kg i.p., 45'",5/5
same,positive responses over number treated,"propoxyphene 15 + compound 10 mg/kg i.p., 60'",5/5
same,positive responses over number treated,"propoxyphene 15 + compound 10 mg/kg i.p., 90'",3/5
same,dose of maximum effect (propoxyphene potentiation),with propoxyphene,10 mg/kg i.p.
CCCN(CCC)C(=O)C(CCC(=O)O)NC(=O)c1ccc(C(C)C)cc1 (centres unmarked) [Compound C-36],TOTAL positives,ASA 100 + compound 10 mg/kg i.p.,10 X/30
same,positive responses over number treated,"ASA 100 + compound 10 mg/kg i.p., 10'",1/5
same,positive responses over number treated,"ASA 100 + compound 10 mg/kg i.p., 20'",2/5
same,positive responses over number treated,"ASA 100 + compound 10 mg/kg i.p., 30'",3/5
same,positive responses over number treated,"ASA 100 + compound 10 mg/kg i.p., 45'",2/5
same,positive responses over number treated,"ASA 100 + compound 10 mg/kg i.p., 60'",1/5
same,positive responses over number treated,"ASA 100 + compound 10 mg/kg i.p., 90'",1/5
same,TOTAL positives,ASA 100 + compound 30 mg/kg i.p.,14 X/30
same,positive responses over number treated,"ASA 100 + compound 30 mg/kg i.p., 10'",1/5
same,positive responses over number treated,"ASA 100 + compound 30 mg/kg i.p., 20'",2/5
same,positive responses over number treated,"ASA 100 + compound 30 mg/kg i.p., 30'",2/5
same,positive responses over number treated,"ASA 100 + compound 30 mg/kg i.p., 45'",3/5
same,positive responses over number treated,"ASA 100 + compound 30 mg/kg i.p., 60'",3/5
same,positive responses over number treated,"ASA 100 + compound 30 mg/kg i.p., 90'",3/5
same,TOTAL positives,ASA 100 + compound 100 mg/kg i.p.,20 X/30
same,positive responses over number treated,"ASA 100 + compound 100 mg/kg i.p., 10'",3/5
same,positive responses over number treated,"ASA 100 + compound 100 mg/kg i.p., 20'",3/5
same,positive responses over number treated,"ASA 100 + compound 100 mg/kg i.p., 30'",4/5
same,positive responses over number treated,"ASA 100 + compound 100 mg/kg i.p., 45'",4/5
same,positive responses over number treated,"ASA 100 + compound 100 mg/kg i.p., 60'",4/5
same,positive responses over number treated,"ASA 100 + compound 100 mg/kg i.p., 90'",2/5
same,TOTAL positives,methadone 1 + compound 0.3 mg/kg i.p.,2 X/30
same,positive responses over number treated,"methadone 1 + compound 0.3 mg/kg i.p., 10'",2/5
same,positive responses over number treated,"methadone 1 + compound 0.3 mg/kg i.p., 20'",2/5
same,positive responses over number treated,"methadone 1 + compound 0.3 mg/kg i.p., 30'",3/5
same,positive responses over number treated,"methadone 1 + compound 0.3 mg/kg i.p., 45'",3/5
same,positive responses over number treated,"methadone 1 + compound 0.3 mg/kg i.p., 60'",1/5
same,positive responses over number treated,"methadone 1 + compound 0.3 mg/kg i.p., 90'",1/5
same,TOTAL positives,methadone 1 + compound 1 mg/kg i.p.,19 X/30
same,positive responses over number treated,"methadone 1 + compound 1 mg/kg i.p., 10'",3/5
same,positive responses over number treated,"methadone 1 + compound 1 mg/kg i.p., 20'",5/5
same,positive responses over number treated,"methadone 1 + compound 1 mg/kg i.p., 30'",4/5
same,positive responses over number treated,"methadone 1 + compound 1 mg/kg i.p., 45'",3/5
same,positive responses over number treated,"methadone 1 + compound 1 mg/kg i.p., 60'",3/5
same,positive responses over number treated,"methadone 1 + compound 1 mg/kg i.p., 90'",1/5
same,TOTAL positives,methadone 1 + compound 3 mg/kg i.p.,24 X/30
same,positive responses over number treated,"methadone 1 + compound 3 mg/kg i.p., 10'",5/5
same,positive responses over number treated,"methadone 1 + compound 3 mg/kg i.p., 20'",5/5
same,positive responses over number treated,"methadone 1 + compound 3 mg/kg i.p., 30'",3/5
same,positive responses over number treated,"methadone 1 + compound 3 mg/kg i.p., 45'",4/5
same,positive responses over number treated,"methadone 1 + compound 3 mg/kg i.p., 60'",5/5
same,positive responses over number treated,"methadone 1 + compound 3 mg/kg i.p., 90'",2/5
